Measured values from the supplement of paper PMC10307832.

How the values were obtained:
Test in all cases: relative viability (nuclei count vs DMSO), 5 days (fraction); higher = more cells survive
[1] = compound: C1COCCN1C2=NC(=NC3=C2OC4=C3C=CC=N4)C5=CC(=CC=C5)NC(=O)C6=CN=C(C=C6)N + COc1cc2c(Oc3ccc(NC(=O)C4(C(=O)Nc5ccc(F)cc5)CC4)cc3F)ccnc2cc1OCCCN1CCOCC1 [Foretinib] (partner 0.25 µM)
How it was run: (§1)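 One day after seeding in 1536-well plates, lung cancer cell lines were dosed by pin tool. Dosing was either single-drug or a fixed anchor-drug dose plus five library-drug doses (not always all listed) in √10 steps. After 5 days, nuclei were stained in one fix-and-stain step and counted on 4× images, and relative viability is the nuclei count of treated wells over that of vehicle wells, given as the median of duplicate plates.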

[2] = compound: CN1CCC(CNc2ccc3ncc(-c4cccc(OC(F)(F)F)c4)n3n2)CC1 [SGI-1776] + O=C(CCCCCCC(=O)Nc1ccccc1)NO [Vorinostat] (partner 1 µM)
How it was run: as §1

[3] = compound: C1COCCN1C2=NC(=NC3=C2OC4=C3C=CC=N4)C5=CC(=CC=C5)NC(=O)C6=CN=C(C=C6)N + Cc1nc(NC(=O)N2CCC[C@H]2C(N)=O)sc1-c1ccnc(C(C)(C)C(F)(F)F)c1 [Alpelisib] (partner 2 µM)
How it was run: as §1

[4] = compound: C1COCCN1C2=NC(=NC3=C2OC4=C3C=CC=N4)C5=CC(=CC=C5)NC(=O)C6=CN=C(C=C6)N + C[C@]1(O)C[C@@H](c2nc(-c3ccc4ccc(-c5ccccc5)nc4c3)c3c(N)nccn32)C1 [Linsitinib] (partner 1 µM)
How it was run: as §1

Work on UMC-11 yielded a relative viability ([1]; first compound 0.02 µM) of 1.05, a relative viability ([1]; first compound 0.06325 µM) of 1.08 and a relative viability ([1]; first compound 0.2 µM) of 1.21. The relative viability ([1]; first compound 0.6325 µM) was 1.19, the relative viability ([1]; first compound 2 µM) was 0.871 and the relative viability ([2]; first compound 0.08 µM) was 0.404. For the same cell line, the relative viability ([2]; first compound 0.8 µM) was 0.378, the relative viability ([2]; first compound 2.53 µM) was 0.357 and the relative viability ([2]; first compound 8 µM) was 0.228. The relative viability ([3]; first compound 0.02 µM) was 1.06, the relative viability ([3]; first compound 0.06325 µM) was 1.04 and the relative viability ([3]; first compound 0.2 µM) was 1.03. The relative viability ([3]; first compound 0.6325 µM) was 1.08, the relative viability ([3]; first compound 2 µM) was 0.593 and the relative viability ([4]; first compound 0.02 µM) was 0.966. The relative viability ([4]; first compound 0.06325 µM) was 1.04, the relative viability ([4]; first compound 0.2 µM) was 1.11 and the relative viability ([4]; first compound 0.6325 µM) was 1.34. It also gave a relative viability ([4]; first compound 2 µM) of 0.666.
